Measurements reported in PMC5346462 (Biochimie, 2017).

Legend:
[1] = target: T1, MiGSTU (Mangifera indica glutathione S-transferase Tau class) (Mangifera indica, UniProt A0A1P8NWC2); assay: steady-state enzyme kinetics of the purified enzyme; format: biochemical; settings: read-out: CDNB / Km
T1 sequence (A0A1P8NWC2 1-229): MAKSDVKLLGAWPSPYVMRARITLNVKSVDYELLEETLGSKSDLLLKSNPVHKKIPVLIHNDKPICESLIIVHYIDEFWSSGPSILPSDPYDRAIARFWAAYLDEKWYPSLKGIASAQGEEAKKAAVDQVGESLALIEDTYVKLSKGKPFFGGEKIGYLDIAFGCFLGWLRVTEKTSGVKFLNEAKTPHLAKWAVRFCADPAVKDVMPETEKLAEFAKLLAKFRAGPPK

[2] = target: Mangifera indica glutathione S-transferase Tau class (MiGSTU) (mango (Mangifera indica)); assay: SEC

| Molecule | Km [1] | stoichiometry N [2] |
| --- | --- | --- |
| O=[N+]([O-])c1ccc(Cl)c([N+](=O)[O-])c1 [CDNB] | 792 µM |  |
| Mangifera indica glutathione S-transferase Tau class (MiGSTU) (enzyme) |  | 2 |
